Key:
Assay type in all cases: binding
[1] = biological target: T1, human MDM2 protein (amino acids 2-188) (Homo sapiens (Human), UniProt Q00987); experiment: TR-FRET assay, p53-MDM2 Assay 1; conditions: 1.25 nM MDM2-biotinylated, 10 nM Cy5-p53 peptide
Procedure: (§1) The inhibition of p53-MDM2 and p53-MDM4 interactions is measured by time resolved fluorescence energy transfer (TR-FRET). Fluorescence energy transfer (or Foerster resonance energy transfer) describes an energy transfer between donor and acceptor fluorescent molecules. For this assay, human MDM2 protein (amino acids 2-188) and human MDM4 protein (amino acids 2-185), tagged with a C-terminal biotin moiety, are used in combination with a Europium labeled streptavidin (Perkin Elmer, Inc., Waltham, Mass., USA) serving as the donor fluorophore. The p53 derived, Cy5 labeled peptide Cy5-TFSDLWKLL (p53 aa18-26) is the energy acceptor. Upon excitation of the donor molecule at 340 nm, binding interaction between MDM2 or MDM4 and the p53 peptide induces energy transfer and enhanced response at the acceptor emission wavelength at 665 nm. Disruption of the formation of the p53-MDM2 or p53-MDM4 complex due to an inhibitor molecule binding to the p53 binding site of MDM2 or MDM4 results in increased donor emission at 620 nm. The ratiometric FRET assay readout is calculated from the raw data of the two distinct fluorescence signals measured in time resolved mode (fluorescence 665 nm/fluorescence 620 nm×1000).
(§2) After addition of 1.25 nM MDM2-biotinylated or 2.5 nM MDM4-biotinylated (internal preparations), and 0.625 nM Europium labeled streptavidin (Perkin Elmer), the solution is pre-incubated for 15 minutes at room temperature, then 10 nM Cy5-p53 peptide (internal preparation) is added before an incubation at room temperature for 15 minutes prior to reading the plate. For measurement of samples, a Victor II microplate reader (Perkin Elmer) is used with the following settings: Excitation 340 nm, Emission Donor 620 nm and Emission Acceptor 665 nm. IC50 values are calculated by curve fitting using XLfit. If not specified, reagents are purchased from Sigma-Aldrich Chemie GmBH, Buchs, Switzerland.
(§3) This assay was used to evaluate compounds displaying inhibition of p53-MDM2 interaction and p53-MDM4 interaction at IC50s of 0.005 to 50 μM (p53-MDM2 Assay 1 and p53-MDM4 Assay 1, respectively). For selected compounds displaying IC50s between […] on MDM2, a slightly modified assay is used with the following adaptations: 0.1 nM MDM2, 0.1 nM Europium labeled streptavidin and Tecan genios Pro is used as a microplate reader for the fluorescence measurements (p53-MDM2 Assay 2).

[2] = biological target: human MDM4 protein (amino acids 2-185) (Homo sapiens (Human), UniProt O15151); experiment: TR-FRET assay, p53-MDM4 Assay 1; conditions: 2.5 nM MDM4-biotinylated, 10 nM Cy5-p53 peptide
Sequence of human MDM4 protein (amino acids 2-185) (O15151 2-185): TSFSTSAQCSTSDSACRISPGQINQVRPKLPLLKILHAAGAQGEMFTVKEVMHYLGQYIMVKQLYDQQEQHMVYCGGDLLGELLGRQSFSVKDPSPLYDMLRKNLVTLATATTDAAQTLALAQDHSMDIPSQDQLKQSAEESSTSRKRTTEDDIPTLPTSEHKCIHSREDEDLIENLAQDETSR
Procedure: as §1, §2, §3

[3] = biological target: T1, human MDM2 protein (amino acids 2-188); experiment: TR-FRET assay, p53-MDM2 Assay 2 (modified); conditions: TR-FRET; 0.1 nM MDM2, 0.1 nM Europium labeled streptavidin, Tecan genios Pro reader; read-out: IC50 p53-MDM2 Assay 2
How it was run: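 Biotinylated human MDM2 (aa 2–188, 1.25 nM) was preincubated 15 min at room temperature with 0.625 nM Eu-streptavidin, then 10 nM Cy5-p53 peptide (aa 18–26) added for 15 min. TR-FRET ratio 665/620 nm (excitation 340 nm) was read; IC50 came from curve fitting.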

T1 sequence (Q00987 2-188): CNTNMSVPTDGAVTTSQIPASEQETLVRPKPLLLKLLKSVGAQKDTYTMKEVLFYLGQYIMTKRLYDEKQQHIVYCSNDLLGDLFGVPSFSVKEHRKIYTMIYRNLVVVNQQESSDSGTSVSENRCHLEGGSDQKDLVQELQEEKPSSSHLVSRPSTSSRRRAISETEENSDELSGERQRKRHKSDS

Row | Compound | IC50 [1] [nM] | IC50 [2] [nM] | IC50 [3] [nM]
1 | CNC(=O)c1ccc(OC)c(-c2cc3c(n2C(C)C)C(c2ccc(Cl)cc2)N(c2cc(Cl)ccc2C)C3=O)c1 (stereo not shown) [Example 10, 3-[5-(5-Chloro-2-methyl-phenyl)-6-(4-chloro-phenyl)-1-isopropyl-4-oxo-1,4,5,6-tetrahydro-pyrrolo[3,4-b]pyrrol-2-yl]-4-methoxy-N-methyl-benzamide] | 0.9 | 478 | 0.116
2 | COc1ncc(-c2cc3c(n2C(C)C)C(c2ccc(Cl)cc2C)N(C2CCOCC2)C3=O)c(OC)n1 (stereo not shown) [Example 105, 6-(4-Chloro-2-methyl-phenyl)-2-(2,4-dimethoxy-pyrimidin-5-yl)-1-isopropyl-5-(tetrahydro-pyran-4-yl)-5,6-dihydro-1H-pyrrolo[3,4-b]pyrrol-4-one] | 10.2 | 6290 | 14.3
3 | COc1ccc(F)cc1-c1cc2c(n1C(C)C)C(c1ccc(Cl)cc1C)N(c1cccc(Cl)c1F)C2=O (stereo not shown) [Example 3, 5-(3-Chloro-2-fluoro-phenyl)-6-(4-chloro-2-methyl-phenyl)-2-(5-fluoro-2-methoxy-phenyl)-1-isopropyl-5,6-dihydro-1H-pyrrolo[3,4-b]pyrrol-4-one] | 6 | 54200 | 
4 | COc1nc(N)ncc1-c1cc2c(n1C(C)C)C(c1ccc(Cl)cc1)N([C@H]1CC[C@H](O)CC1)C2=O (stereo partly drawn) [Example 68, 2-(2-Amino-4-methoxy-pyrimidin-5-yl)-6-(4-chloro-phenyl)-5-(trans-4-hydroxy-cyclohexyl)-1-isopropyl-5,6-dihydro-1H-pyrrolo[3,4-b]pyrrol-4-one] | 12.6 | 7860 | 14.2
5 | COc1ccccc1-c1cc2c(n1C(C)C)C(c1ccc(Cl)cc1C)N([C@H]1CC[C@H](O)CC1)C2=O (stereo partly drawn) [Example 101, 6-(4-Chloro-2-methyl-phenyl)-5-(trans-4-hydroxy-cyclohexyl)-1-isopropyl-2-(2-methoxy-phenyl)-5,6-dihydro-1H-pyrrolo[3,4-b]pyrrol-4-one] | 27 | 2990 | 31.9
6 | COc1nc(N)ncc1-c1cc2c(n1C(C)C)C(c1ccc(Cl)cc1)N(C1CCOCC1)C2=O (stereo not shown) [Example 78, 2-(2-Amino-4-methoxy-pyrimidin-5-yl)-6-(4-chloro-phenyl)-1-isopropyl-5-(tetrahydro-pyran-4-yl)-5,6-dihydro-1H-pyrrolo[3,4-b]pyrrol-4-one] | 8.5 | 14000 | 5.08
7 | Cc1cc(N2C(=O)c3cc(-c4ccn(C)c(=O)c4)n(C4CC4)c3C2c2ccc(Cl)cc2)cn(C)c1=O (stereo not shown) [Example 242, 6-(4-Chlorophenyl)-1-cyclopropyl-5-(1,5-dimethyl-6-oxo-1,6-dihydropyridin-3-yl)-2-(1-methyl-2-oxo-1,2-dihydropyridin-4-yl)-5,6-dihydropyrrolo[3,4-b]pyrrol-4(1H)-one] | 2040 | > 100000 | 
8 | COc1ccc(C(=O)O)cc1-c1cc2c(n1C(C)C)C(c1ccc(Cl)cc1)N([C@H]1CC[C@H](O)CC1)C2=O (stereo partly drawn) [Example 65, 3-[6-(4-Chloro-phenyl)-5-(trans-4-hydroxy-cyclohexyl)-1-isopropyl-4-oxo-1,4,5,6-tetrahydro-pyrrolo[3,4-b]pyrrol-2-yl]-4-methoxy-benzoic acid] | 12.3 | 8790 | 4.91
9 | COc1nc(N)ncc1-c1cc2c(n1C(C)C)C(c1ccc(Cl)cc1)N(C1CCC(=O)N(C)C1)C2=O (stereo not shown) [Example 108, 2-(2-Amino-4-methoxy-pyrimidin-5-yl)-6-(4-chloro-phenyl)-1-isopropyl-5-(1-methyl-6-oxo-piperidin-3-yl)-5,6-dihydro-1H-pyrrolo[3,4-b]pyrrol-4-one] | 3.3 | 9020 | 3.7
10 | COc1ncc(-c2cc3c(n2C(C)C)C(c2ccc(Cl)cc2C)N([C@H]2CC[C@H](O)CC2)C3=O)c(OC)n1 (stereo partly drawn) [Example 103, 6-(4-Chloro-2-methyl-phenyl)-2-(2,4-dimethoxy-pyrimidin-5-yl)-5-(trans-4-hydroxy-cyclohexyl)-1-isopropyl-5,6-dihydro-1H-pyrrolo[3,4-b]pyrrol-4-one] | 20.7 | 4710 | 30.1
11 | CNC(=O)c1ccc(OC)c(-c2cc3c(n2C(C)C)[C@H](c2ccc(Cl)cc2C)N(c2cccc(Cl)c2F)C3=O)c1 [Example 7, 3-[(S)-5-(3-Chloro-2-fluoro-phenyl)-6-(4-chloro-2-methyl-phenyl)-1-isopropyl-4-oxo-1,4,5,6-tetrahydro-pyrrolo[3,4-b]pyrrol-2-yl]-4-methoxy-N-methyl-benzamide] | 0.6 | 507 | 0.119
12 | COc1ccccc1-c1cc2c(n1C(C)C)C(c1ccc(Cl)cc1)N(c1cc(Cl)ccc1C)C2=O (stereo not shown) [Example 9, 5-(5-Chloro-2-methyl-phenyl)-6-(4-chloro-phenyl)-1-isopropyl-2-(2-methoxy-phenyl)-5,6-dihydro-1H-pyrrolo[3,4-b]pyrrol-4-one] | 0.6 | 4030 | 0.298
13 | CNC(=O)N1CCC(N2C(=O)c3cc(-c4cnc(OC)nc4OC)n(C(C)C)c3C2c2ccc(Cl)cc2)CC1 (stereo not shown) [Example 107, 4-[6-(4-Chloro-phenyl)-2-(2,4-dimethoxy-pyrimidin-5-yl)-1-isopropyl-4-oxo-4,6-dihydro-1H-pyrrolo[3,4-b]pyrrol-5-yl]-piperidine-1-carboxylic acid methylamide] | 3 | 3640 | 2.69
14 | COc1ccccc1-c1cc2c(n1C(C)C)C(c1ccc(Cl)cc1C)N(c1cccc(Cl)c1F)C2=O (stereo not shown) [Example 1, 5-(3-Chloro-2-fluoro-phenyl)-6-(4-chloro-2-methyl-phenyl)-1-isopropyl-2-(2-methoxy-phenyl)-5,6-dihydro-1H-pyrrolo[3,4-b]pyrrol-4-one] | 9.5 | 27800 | 
15 | COc1nc(N(C)C)ncc1-c1cc2c(n1C(C)C)[C@H](c1ccc(C#N)cc1)N(c1cc(Cl)c[nH]c1=O)C2=O [Example 167, 4-[(S)-5-(5-Chloro-2-oxo-1,2-dihydro-pyridin-3-yl)-2-(2-dimethylamino-4-methoxy-pyrimidin-5-yl)-1-isopropyl-4-oxo-1,4,5,6-tetrahydro-pyrrolo[3,4-b]pyrrol-6-yl]-benzonitrile] | 0.8 | 716 | 0.161
16 | COc1ncc(-c2cc3c(n2C2CC2)C(c2ccc(Cl)cc2)N(c2cc(C)c(=O)n(C)c2)C3=O)c(OC)n1 (stereo not shown) [Example 240, 6-(4-Chlorophenyl-1)-1-cyclopropyl-2-(2,4-dimethoxypyrimidin-5-yl)-5-(1,5-dimethyl-6-oxo-1,6-dihydropyridin-3-yl)-5,6-dihydropyrrolo[3,4-b]pyrrol-4(1H)-one] | 33.3 | 77600 | 
17 | CNC(=O)c1ccc(OC)c(-c2cc3c(n2C(C)C)C(c2ccc(Cl)cc2C)N(c2cccc(Cl)c2F)C3=O)c1 (stereo not shown) [Example 2, 3-[5-(3-Chloro-2-fluoro-phenyl)-6-(4-chloro-2-methyl-phenyl)-1-isopropyl-4-oxo-1,4,5,6-tetrahydro-pyrrolo[3,4-b]pyrrol-2-yl]-4-methoxy-N-methyl-benzamide] | 2.9 | 2900 | 0.757
18 | COc1ncc(-c2cc3c(n2C(C)C)[C@H](c2ccc(Cl)cc2)N(c2cc(Cl)c(=O)n(C)c2)C3=O)c(OC)n1 [Example 121, (S)-5-(5-Chloro-1-methyl-6-oxo-1,6-dihydro-pyridin-3-yl)-6-(4-chloro-phenyl)-2-(2,4-dimethoxy-pyrimidin-5-yl)-1-isopropyl-5,6-dihydro-1H-pyrrolo[3,4-b]pyrrol-4-one] | 0.6 | 1060 | 0.087
19 | COc1ncc(-c2cc3c(n2C2CC2)C(c2ccc(Cl)cc2)N(c2cc(C)c(=O)n(C)c2)C3=O)cn1 (stereo not shown) [Example 241, 6-(4-Chlorophenyl)-1-cyclopropyl-5-(1,5-dimethyl-6-oxo-1,6-dihydropyridin-3-yl)-2-(2-methoxypyrimidin-5-yl)-5,6-dihydropyrrolo[3,4-b]pyrrol-4(1H)-one] | 3920 | > 100000 | 
